Consider 35 compounds from BindingDB's records for doi:10.7270/Q28G8J4C (Broad Institute, 2009).

This experiment has as its target T1, POsterior Segregation (Caenorhabditis elegans, UniProt G5EF15).
T1 sequence (G5EF15 whole entry): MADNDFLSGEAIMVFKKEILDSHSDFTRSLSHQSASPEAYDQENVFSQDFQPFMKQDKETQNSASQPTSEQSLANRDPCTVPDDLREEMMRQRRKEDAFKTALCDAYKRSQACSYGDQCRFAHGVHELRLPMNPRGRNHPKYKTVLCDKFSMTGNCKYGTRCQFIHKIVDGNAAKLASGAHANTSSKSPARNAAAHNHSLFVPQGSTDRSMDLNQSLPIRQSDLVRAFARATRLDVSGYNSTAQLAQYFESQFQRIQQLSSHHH
As to the kind of experiment: disruptors of C. elegans POS-1 RNA interaction – biochemical, fluorescence polarization, dose response (AID 1964).

What is called EC50 is the concentration giving half of the maximal effect. The low end stands for greater potency, the high end for weaker potency. Turning to `CC(C)(C)OC(=O)N1CCC2=C(C#N)C(=N)C(C#N)(C#N)[C@H](c3cccnc3)[C@H]2C1` [(8S,8aR)-6-amino-5,7,7-tricyano-8-(3-pyridinyl)-1,3,8,8a-tetrahydroisoquinoline-2-carboxylic acid tert-butyl ester], the EC50 turned out to be 61.7 µM.
The figure for `O=CC(C=Nc1ccccn1)c1nc2cc(Cl)ccc2o1` (stereo not given) [(Z)-2-(5-chloranyl-1,3-benzoxazol-2-yl)-3-(pyridin-2-ylamino)prop-2-enal] is 67.7 µM; for `Oc1ccc(CN=Nc2ccc(Cl)nn2)c(O)c1O` it is 50 µM.
In the case of `C=CCOc1ccc(C2C(C(=O)c3ccco3)C(=O)C(=O)N2c2nnc(C)s2)cc1` (stereo not given) [3-(furan-2-carbonyl)-4-hydroxy-1-(5-methyl-1,3,4-thiadiazol-2-yl)-2-(4-prop-2-enoxyphenyl)-2H-pyrrol-5-one] it was > 300 µM; in that of `Cc1ccc(-c2c(CCC(C)N=O)oc3ccc(Cl)cc23)o1` (stereo not given) [4-[5-chloro-3-(5-methyl-2-furanyl)-2-benzofuranyl]-2-butanone oxime], > 300 µM.
The figure for `CSc1nnc(N2C(=O)C(=O)C(C(=O)c3ccco3)C2c2ccc(F)cc2)s1` (stereo not given) [2-(4-fluorophenyl)-3-(furan-2-carbonyl)-4-hydroxy-1-(5-methylsulfanyl-1,3,4-thiadiazol-2-yl)-2H-pyrrol-5-one] is 150 µM; for `Cc1cc(=O)n(-c2ccc(C(=O)O)c(N)c2)[nH]1` [MLS000690508] it is 85.5 µM; for `Cc1ccc(NC=C2SC(=O)c3ccccc32)c(C)c1` [(3Z)-3-[(2,4-dimethylanilino)methylene]isobenzothiophen-1-one] it is > 300 µM.
As for `C=CCOc1cccc(C2C(C(=O)c3ccc(C)o3)C(=O)C(=O)N2c2nnc(C)s2)c1` (stereo not given) [3-(5-methylfuran-2-yl)carbonyl-1-(5-methyl-1,3,4-thiadiazol-2-yl)-4-oxidanyl-2-(3-prop-2-enoxyphenyl)-2H-pyrrol-5-one], the EC50 is > 300 µM.
In the case of `C=CCOc1cccc(C2C(C(=O)c3ccco3)C(=O)C(=O)N2Cc2ccco2)c1` (stereo not given) [1-(2-furanylmethyl)-3-[2-furanyl(oxo)methyl]-4-hydroxy-2-(3-prop-2-enoxyphenyl)-2H-pyrrol-5-one] it was > 300 µM; in that of `O=C1Nc2ccccc2C1=NNc1ccccc1` [3-(phenylhydrazo)-2-indolone], 7.37 µM.
With `CCn1nc(C)c(C=C2CCCC3=C2OC(=N)C(C#N)C3c2c(C)nn(CC)c2C)c1C` (stereo not given) [(8E)-2-amino-4-(1-ethyl-3,5-dimethyl-1H-pyrazol-4-yl)-8-[(1-ethyl-3,5-dimethyl-1H-pyrazol-4-yl)methylene]-5,6,7,8-tetrahydro-4H-chromene-3-carbonitrile], a half-maximal response (EC50) required 36 µM. This EC50 is about 4.9-fold higher than that of the compound before.
Turning to `O=[N+]([O-])c1cc/c(=N\c2ccccc2O)c2no[nH]c1-2` [MLS001206694], the response was half-maximal at 24.4 µM (EC50).
For the compound `COc1ccc(C(C)N=Nc2nc3ccccc3nc2C)cc1OC` (stereo not given) [MLS001029936], the EC50 was determined as 5.07 µM.
The figure for `O=C1c2cccc3cccc(c23)C(=O)C1[N+](=O)[O-]` [2-nitro-3-oxidanyl-phenalen-1-one] is 12.6 µM.
In the case of `COc1ccc(C2C3=C(CCCC3=O)OC(=N)C2C#N)cc1OC` (stereo not given) [2-amino-4-(3,4-dimethoxyphenyl)-5-keto-4,6,7,8-tetrahydrochromene-3-carbonitrile] it was > 300 µM; in that of `C/N=c1\ccc2nc3ccccc3n(C)c-2c1` [N,10-dimethyl-2-phenazin-10-iumamine;perchlorate], 20.5 µM; in that of `O=C1NC(=S)N(c2ccc(F)cc2)C(=O)C1=Cc1ccco1` [(5E)-1-(4-fluorophenyl)-5-(2-furanylmethylidene)-2-sulfanylidene-1,3-diazinane-4,6-dione], 10.4 µM.
In the case of `O=c1c2ccccc2nc(N=NCc2ccc(O)cc2)n1O` [3-Hydroxy-2-{N'-[1-(4-hydroxy-phenyl)-meth-(E)-ylidene]-hydrazino}-3H-quinazolin-4-one] it was > 300 µM.
Turning to `CC1(C)c2[nH]c3ccccc3c2Cc2c(O)n(-c3ccc(F)cc3F)c(=O)n21` [MLS001065879], the EC50 is > 300 µM.
In the case of `N#CC1C(=N)OC2=C(C(=O)CCC2)C1c1cc2c(cc1Br)OCO2` (stereo not given) [2-azanyl-4-(6-bromanyl-1,3-benzodioxol-5-yl)-5-oxidanylidene-4,6,7,8-tetrahydrochromene-3-carbonitrile], the EC50 is > 300 µM.
For the compound `COc1ccc(OC)c(N2C(=O)C(=Cc3ccco3)C(=O)NC2=S)c1` [MLS001197216], the EC50 was found to be 10.4 µM.
In the case of `Cc1ccc(C(=O)C2C(=O)C(=O)N(Cc3ccco3)C2c2ccc(N(C)C)cc2)o1` (stereo not given) [2-[4-(dimethylamino)phenyl]-1-(2-furanylmethyl)-4-hydroxy-3-[(5-methyl-2-furanyl)-oxomethyl]-2H-pyrrol-5-one] it was > 300 µM.
For the compound `COc1ccc(C2C3=C(CC(C)(C)CC3=O)OC(=N)C2C#N)c(OC)c1OC` (stereo not given) [2-amino-5-keto-7,7-dimethyl-4-(2,3,4-trimethoxyphenyl)-6,8-dihydro-4H-chromene-3-carbonitrile], the EC50 is > 300 µM.
Turning to `N#CC1=C2CCOC[C@@H]2[C@@H](c2ccsc2)C(C#N)(C#N)C1=N` [(8R,8aR)-6-amino-8-(3-thienyl)-1,3,8,8a-tetrahydroisochromene-5,7,7-tricarbonitrile], the EC50 was > 300 µM.
As for `COc1cc(CN=Nc2[nH]c(=O)nnc2C)ccc1O` [5-[2-[(E)-(3-methoxy-4-oxocyclohexa-2,5-dien-1-ylidene)methyl]hydrazinyl]-6-methyl-2H-1,2,4-triazin-3-one], the EC50 came out at 56.8 µM. This counts as double-digit micromolar.
The figure for `CC(N=Nc1ccc([N+](=O)[O-])cc1[N+](=O)[O-])c1cc2c(ccc3ccccc32)oc1=O` (stereo not given) [2-[1-[(2,4-dinitrophenyl)hydrazinylidene]ethyl]-3-benzo[f][1]benzopyranone] is > 300 µM; for `N#CC1C(=N)OC2=C(C(=O)CCC2)C1c1ccc2c(c1)OCO2` (stereo not given) it is > 300 µM.
The figure for `CCOC(=O)C1=C(C)OC(=N)C(C#N)C1c1ccc(O)c(OC)c1` (stereo not given) [6-amino-5-cyano-4-(4-hydroxy-3-methoxyphenyl)-2-methyl-4H-pyran-3-carboxylic acid ethyl ester] is > 300 µM; for `C=CCN1C(=O)NC(=O)C(=CCC=Nc2ccccc2)C1=O` [(5Z)-5-[(E)-3-phenylazanylprop-2-enylidene]-1-prop-2-enyl-1,3-diazinane-2,4,6-trione] it is > 300 µM; for `Fc1ccc(C2=Nc3ncnn3C(c3ccco3)C2)cc1` (stereo not given) [5-(4-fluorophenyl)-7-(2-furanyl)-1,7-dihydro-[1,2,4]triazolo[1,5-a]pyrimidine] it is 14.7 µM.
The figure for `C/N=C1/S/C(=C\c2ccc(N3CCCC3)c(F)c2)C(=O)N1C` [(5Z)-5-(3-fluoro-4-pyrrolidino-benzylidene)-3-methyl-2-methylimino-thiazolidin-4-one] is 5.9 µM; for `CC(=O)C1C(c2ccccc2)=NC(=O)NC1c1ccc(O)c(O)c1` (stereo not given) [4-[3,4-bis(oxidanyl)phenyl]-5-ethanoyl-6-phenyl-3,4-dihydro-1H-pyrimidin-2-one] it is > 300 µM; for `O=C(Cc1nc2cc([N+](=O)[O-])ccc2[nH]c1=O)c1ccccc1` [6-Nitro-3-(2-oxo-2-phenyl-ethylidene)-3,4-dihydro-1H-quinoxalin-2-one] it is 20.1 µM.
`COc1cc(C2C3CN(C)CCC3=C(C#N)C(=N)C2(C#N)C#N)ccc1OC(C)C` (stereo not given) [MLS000034945]: the concentration for a half-maximal effect (EC50) is > 300 µM.
